In assay [1] the target is T1, G protein-activated inward rectifier potassium channel 2 (Mus musculus) (UniProt P48542).
T1 sequence (whole entry): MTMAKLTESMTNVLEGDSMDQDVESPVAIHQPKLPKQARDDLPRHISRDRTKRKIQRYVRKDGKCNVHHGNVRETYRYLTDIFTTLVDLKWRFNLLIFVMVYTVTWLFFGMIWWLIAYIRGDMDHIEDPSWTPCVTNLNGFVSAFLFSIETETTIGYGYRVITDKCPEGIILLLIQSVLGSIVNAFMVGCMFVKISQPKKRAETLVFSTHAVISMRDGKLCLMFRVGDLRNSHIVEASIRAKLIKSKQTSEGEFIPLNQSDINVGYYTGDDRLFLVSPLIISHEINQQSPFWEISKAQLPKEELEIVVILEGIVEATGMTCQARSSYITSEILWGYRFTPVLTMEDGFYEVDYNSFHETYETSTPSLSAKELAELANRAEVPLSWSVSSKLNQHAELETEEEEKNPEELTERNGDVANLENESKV
Put plainly: Stabilization of GIRK2 channel in C57BL6 mouse brain DAergic neurons assessed as recovery of GABAB receptor stimulation-mediated firing inhibition treated with 100 uM dopamine and 10 uM sulpiride D2 antagonist under continuous perfusion followed by 300 nM baclofen treated at 300 uM measured after 15 mins by multi-electrode array (reference value: 24.94 +-/ 14.46%). Details: scale not given: the % may be the effect or the level left. The assay is classed as tissue-based.

In assay [2] the target is T1, G protein-activated inward rectifier potassium channel 2 (Mus musculus). Put plainly: Stabilization of GIRK2 channel in C57BL6 mouse brain DAergic neurons assessed as recovery of D2 receptor stimulation-mediated firing inhibition in presence of 100 nM quinpirole under continuous perfusion followed by treated at 300 uM measured after 15 mins by multi-electrode array (reference value: 4.07 +-/ 3.6%). The conditions noted are these: […]. Type of assay: tissue-based. Details: scale not given: the % may be the effect or the level left.

The record followed here is ChEMBL document CHEMBL4665644, “L-DOPA-quinone Mediated Recovery from GIRK Channel Firing Inhibition in Dopaminergic Neurons” (ACS Med Chem Lett, 2019).

Regarding `N[C@@H](CC1=CC(=O)C(=O)C=C1)C(=O)O`, the Activity in assay [1] was 73.6%; in assay [2], 81.8%.
